Experimental data from publication PMC5816697 (European journal of medicinal chemistry, 2018).
Entries after “also recorded” stand apart in the source; their conditions may differ.

Experiments:
[1] = tested on: phosphorylation of MEK and ERK (BRAF^V600E downstream signaling); assay: Western blot of MEK/ERK phosphorylation in A375 cells; type: cell-based
[2] = tested on: phosphorylation of Abl at Y412; assay: Immunoblot of Abl Y412 phosphorylation in BCR-ABL-expressing Ba/F3 cells; type: cell-based
Ba/F3 BCR-ABL = assay: MTT growth inhibition assay, Ba/F3 cells expressing Bcr-Abl; type: cell-based; conditions: ratio of IC50 values
panel of 244 kinases = assay: Kinome profiling against a panel of 244 kinases; type: biochemical; conditions: 1 μM compound

With `CCCS(=O)(=O)Nc1ccc(F)c(C(=O)c2c[nH]c3ncc(-c4ccc(Cl)cc4)cc23)c1F` [Vem, vemurafenib, reference compound] the “effect on phosphorylation of MEK and ERK” value ([1]; concentrations above 1 μM) was “abolished the phosphorylation of MEK and ERK” and the “effect on phosphorylation of MEK” value ([1]; various concentrations, Figure 4) was “potently blocked phosphorylation of MEK”.
`CC(C)n1nc(C#Cc2cccc3cc(-c4ccc(CN5CCN(C)CC5)cc4)ncc23)c2c(N)ncnc21` [Compound 2f, 1-Isopropyl-3-((3-(4-((4-methylpiperazin-1-yl)methyl)phenyl)isoquinolin-8-yl)ethynyl)-1H-pyrazolo[3,4-d]pyrimidin-4-amine] was tested, and the “fold lower potency than compound 1, Abl Y412 phosphorylation” value [2] was “approximately 30 fold” and the “fold less potent than parent compound 1 against Bcr-Abl Ba/F3 cells” value (Ba/F3 BCR-ABL) was 44 fold.
In the case of `CC(C)n1nc(C#Cc2cccc(NC(=O)c3cccc(C(F)(F)F)c3)c2)c2c(N)ncnc21` [Compound 1], the “number of kinases inhibited by over 90%” value (panel of 244 kinases) is reported as 44.
With `CCn1nc(C#Cc2cccc3cc(-c4cccc(C(F)(F)F)c4)ncc23)c2c(N)ncnc21` [Compound 2d, 1-Ethyl-3-((3-(3-(trifluoromethyl)phenyl)isoquinolin-8-yl)ethynyl)-1H-pyrazolo[3,4-d]p yrimidin-4-amine] the “effect on phosphorylation of MEK” value ([1]; concentrations up to 100 μM) was “failed to suppress the phosphorylation of MEK; also recorded: little effects”.
